The values below come from patent US20260092300A1, “MINIMUM INHIBITORY CONCENTRATION RECOGNITION METHOD, APPARATUS AND DEVICE, AND STORAGE MEDIUM” (AUTOBIO LABTEC INSTRUMENTS CO., LTD., priority 2022, published 2026).

≈ marks a conversion by molar mass, not a printed value.

What all share (format): cell-based
Assay [1] has as its system ATCC25922 Escherichia coli. As to the kind of experiment: MIC determined by the method (lensless imaging, Siamese neural network image similarity). The conditions noted are these: incubation 2 hours to 4 hours at 37±2° C. The source says: (§1) The antimicrobial susceptibility test plate is a commonly used experimental equipment in antimicrobial susceptibility tests, which consists of multiple regularly arranged microwells. In practice, the antimicrobial susceptibility test plate is of different specifications, generally including a 96-well plate and a 128-well plate. In the implementation, the operator first prepares the bacterial suspension of a sample (that is, the to-be-tested bacterial strain); opens an antibiotic-coated antimicrobial susceptibility test plate, of which the microwells are pre-coated with the to-be-tested antibiotic with different gradient concentrations (that is, the preset gradient concentrations), where the concentration gradients of the antibiotic may be designed according to the rules of the clinical laboratory standard institute; adds the bacterial suspension to the microwells via a sample loading well; and places the antimicrobial susceptibility test plate on the imaging platform upon completing the sample loading. The processor controls the imaging platform to perform lensless imaging on the microwells at an initial time instant immediately after the sample is added (that is, the time instant of not completing inhibition) and a time instant immediately after the preset incubation time period (that is, the time instant of completing bacteria inhibition) and saves the data, so as to obtain the testing images and the test control images of the to-be-tested bacterial strain. Alternatively, the processor performs lensless imaging on the microwells and the control microwells at the time instant immediately after the preset incubation time period and saves the data.
(§2) For example, the determination result of the minimum inhibitory concentrations of two commonly used clinical quality control strains (ATCC25922 Escherichia coli and ATCC25923 Staphylococcus aureus) through the method according to the embodiments validates the feasibility of the method. Preparation of the bacterial strain includes: sub-culturing the strain for the second to fourth generations for standby; selecting colonies to prepare a bacterial suspension with a McFarland 0.5 standard; pre-coating antibiotic in the microwells of the antimicrobial susceptibility test plate (the concentration of the antibiotic is prepared according to CLSI standard); mixing the bacterial suspension with agarose at a concentration of 0.6% to 1.0% and a temperature of 37° C. to 40° C. in a dilution ratio of 1:300 to 1:500; adding the mixture sample respectively to the microwells by centrifugation; and then placing the antimicrobial susceptibility test plate in an incubator (37±2° C.) to incubate for 2 hours to 4 hours. Data collection includes: when the incubation is completed, placing the antimicrobial susceptibility test plate on the lensless imaging platform to take the images of the wells (that is, microwells) and recording the images corresponding to different antibiotic concentrations, where the minimum inhibitory concentration (MIC) determined by using the method in the embodiments is obtained based on the images. As shown in Table 1 and Table 2, it can be seen from the MIC results determined through the method and antimicrobial susceptibility results of the clinical gold standard broth microdilution test (BMD) that the MIC results determined through the method according to the embodiment are more accurate and reliable, and the MIC results are determined in 2 hours to 4 hours through the method according to the embodiment, which is more efficient.

Assay [2] relates to ATCC25922 Escherichia coli. As to the kind of experiment: Broth microdilution test (BMD). To be noted: clinical gold standard broth microdilution test.
In assay [3] the test system is ATCC25923 Staphylococcus aureus. Nature of the assay: MIC determined by the method (lensless imaging, Siamese neural network image similarity). To be noted: incubation 2 hours to 4 hours at 37±2° C.
Description: as §1, §2

For assay [4] the test system is unchanged. Nature of the assay: Broth microdilution test (BMD). The conditions noted are these: clinical gold standard broth microdilution test.

`NCC[C@H](O)C(=O)N[C@@H]1C[C@H](N)[C@@H](O[C@H]2O[C@H](CN)[C@@H](O)[C@H](O)[C@H]2O)[C@H](O)[C@H]1O[C@H]1O[C@H](CO)[C@@H](O)[C@H](N)[C@H]1O` [Amikacin]: the figures for the MIC in assay [1] and in assay [2] were 4 µg/mL (≈ 6.83 µM) and 1 to 4 µg/mL (≈ 1.71 to 6.83 µM), respectively.

Consider `CC1(C)S[C@@H]2[C@H](NC(=O)[C@H](N)c3ccccc3)C(=O)N2[C@H]1C(=O)O` [Ampicillin], for which the MIC in assay [1] was 4 µg/mL (≈ 11.4 µM); in assay [3], 1 µg/mL (≈ 2.86 µM); in assay [4], 1 µg/mL (≈ 2.86 µM); in assay [2] it was 4 µg/mL (≈ 11.4 µM).

In the case of `CO[C@@]1(NC(=O)Cc2cccs2)C(=O)N2C(C(=O)O)=C(COC(N)=O)CS[C@@H]21` [Cefoxitin], the MIC in assay [1] was 1 µg/mL (≈ 2.34 µM); in assay [3] it was 4 µg/mL (≈ 9.36 µM); in assay [4], 1 to 4 µg/mL (≈ 2.34 to 9.36 µM); in assay [2], 2 to 4 µg/mL (≈ 4.68 to 9.36 µM).

For `CC[C@H]1OC(=O)[C@H](C)[C@@H](O[C@H]2C[C@@](C)(OC)[C@@H](O)[C@H](C)O2)[C@H](C)[C@@H](O[C@@H]2O[C@H](C)C[C@H](N(C)C)[C@H]2O)[C@](C)(O)C[C@@H](C)C(=O)[C@H](C)[C@@H](O)[C@]1(C)O` [Erythromycin], the minimum inhibitory concentration (MIC) is 0.5 µg/mL (≈ 0.681 µM) in assay [3] and 0.25 to 0.5 µg/mL (≈ 0.341 to 0.681 µM) in assay [4].

For `C[C@@H](O)[C@H]1C(=O)N2C(C(=O)O)=C(SCCN=CN)C[C@H]12` [Imipenem], the minimum inhibitory concentration (MIC) in assay [1] is 0.12 µg/mL (≈ 0.401 µM); in assay [2], 0.06 to 0.25 µg/mL (≈ 0.2 to 0.835 µM).

Turning to Gentamycin, in assay [1], the “The method (MIC)” value amounted to 0.25 µg/mL. In addition, in assay [2], the “BMD (MIC)” value was in the range of 0.25 to 0.5 µg/mL.

The MIC is the lowest concentration found to suppress growth. Read a low MIC as inhibition by little substance.
